Entries after “also recorded” stand apart in the source; their conditions may differ.
What was measured:
[1] = system: Guinea Pig Trachea; assay: Effects on the Guinea Pig Trachea in Vitro; type: cell-based; settings: 0.01 to 10.0 mcg/ml, versus PGE1 0.1 mcg/ml, R = relaxation, C = contraction
Description: A male guinea pig weighing 200-500 g was killed by a blow on the head. A 20 mm length of the trachea was dissected from the animal, transferred to a petri dish containing Krebs' solution (aerated with 95% O2 and 5% CO2 at 37° C), and cut longitudinally opposite the tracheal muscle. The tissue was then cut transversely three quarters of the distance across, a second cut in the opposite direction (again three quarters of the distance across the tissue) was made and the procedure was continued for the whole tissue. The ends of the trachea were pulled to form a zig-zag shaped strip. The tracheal strip used in the experiment was approximately 30 mm when extended under 0.25-0.5 g load in the tissue bath. Cotton thread was tied to one end of the tissue, and linen thread to the other. It was attached via the linen thread to a glass hook in a 5 ml isolated tissue bath containing Krebs' solution (37° C, aerated with a mixture of 95 % O2 and 5% CO2). […]
A test compound was then added to the same two strips at bath concentrations of 0.01, 0.1, 1.0, and 10.0 mcg/ml and the effects of the compound were recorded. […] The mean of the effects of the test compound on the two strips was then calculated for each concentration, and, based on the resulting values, an activity value was assigned as follows: […]

[2] = system: rabbit aortic strip; assay: Cascade Assay, aorta (smooth muscle stimulant effect); type: cell-based; settings: superfused, 50% of maximum (PGA2)
Procedure, shortened: (§1)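 Rabbit aortic strip (4 g tension), rat stomach fundus, rat colon and chick rectum (1 g) in cascade, superfused at 10 ml/min with 37° C Krebs containing cholinergic, adrenergic, serotonin and histamine blockers. Doses of 0.001–100,000 ng dripped on at 10–20 min intervals; maximal tension rise gave graphical ED50 per tissue.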

[3] = system: chick rectum; assay: Cascade Assay, rectum (smooth muscle stimulant effect); type: cell-based; settings: superfused, 50% of maximum (PGE1)
Procedure, shortened: as §1

[4] = system: Blood Pressure and Heart Rate; assay: Effects on Blood Pressure and Heart Rate in the Anesthetized Cat; type: in vivo; settings: intravenous, 0.01 to 10.0 mcg/kg, scored only on hypotension
Procedure, shortened: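 Cats of either sex anesthetized with pentobarbital sodium (35 mg/kg i.v.) plus barbital sodium (100 mg/kg i.v.), femoral arterial pressure and ECG-driven heart rate recorded. Compound given i.v. at one-log increasing doses, 0.01–10.0 mcg/kg, every 10 min. ED50 mmHg (dose lowering blood pressure by 50 mmHg) derived graphically from hypotension.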

[5] = system: rat stomach fundus; assay: Cascade Assay, stomach (smooth muscle stimulant effect); type: cell-based; settings: superfused, 50% of maximum (PGE1)
Procedure, shortened: as §1

[6] = system: motor pathways in the central nervous system; settings: cited from earlier work
[7] = system: female reproductive system; settings: in vivo; cited from earlier work
[8] = system: adrenergic nerve endings; settings: guinea pig; cited from earlier work
[9] = system: steroidogenesis in the adrenal glands; settings: hypophysectomized rats; cited from earlier work
[10] = system: smooth muscle of the vas deferens; settings: mammalian male reproductive system; cited from earlier work
[11] = system: Human Platelet Aggregation; settings: in vitro; cited from earlier work
[12] = system: rat colon; assay: Cascade Assay, colon (smooth muscle stimulant effect); type: cell-based; settings: superfused, 50% of maximum (PGF2α)
Procedure, shortened: as §1

[13] = system: Rat Uterus; assay: Effects on the Rat Uterus in Vitro; type: cell-based; settings: Rattus norvegicus; in vitro, 29° C; response 50% that of carbachol; read-out: Test F Rat Uterus, Activity Value (ED50)
Procedure, shortened: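 Uterine segments came from rats (140–160 g) given 1 mg/kg diethylstilbestrol s.c. 18 h earlier. Tissue was held isometrically at 1 g tension in de Jalon solution at 29 °C, gassed with 95% O2/5% CO2. Compound was tested at 0.001–10 mcg/ml in log steps, every 10 min with washes, and ED50 was derived graphically as 50% of the second carbachol (1 mcg/ml) response.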

[14] = system: Gastric Secretion; assay: Effects on Gastric Secretion in the Rat; type: in vivo; settings: pylorus-ligated rat, subcutaneous, 2 x 1.5 mg/kg (total 3.0 mg/kg), 4 hours
Procedure, shortened: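 Rats (150-200 g, groups of six) fasted 48 h, pylorus ligated under ether. Compounds given s.c. in phosphate buffer pH 7.38 at 1.5 mg/kg immediately post-surgery and 2 h later (total 3.0 mg/kg). At 4 h, gastric volume and total acid (titration with 0.1 N NaOH, mEq) compared with vehicle controls by t-test.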

COC(=O)CCCCCC[C@H]1C(=O)C=C[C@H]1/C=C/[C@@H](O)C1CC2(CCC2)C1 [TR-4126, Methyl 7-{5-oxo-2R-[3S-hydroxy-3-(spiro[3.3]hept-2-yl)-1E-propenyl]cyclopent-3-en-1R-yl}heptanoate]
Test G Guinea Pig Trachea, Activity Value [1]: Cl | Test E Cascade Assay, Aorta, Activity Value (ED50) [2]: 0 (>10000) | Test E Cascade Assay, Rectum, Activity Value (ED50) [3]: 0 (>10000) | Test D Activity Value (ED50 mmHg, decrease in blood pressure) [4]: 0 (>10.0) | Test E Cascade Assay, Stomach, Activity Value (ED50) [5]: 0 (>10000)

CCCCC[C@H](O)/C=C/[C@@H]1[C@@H](C/C=C\CCCC(=O)O)[C@@H](O)C[C@H]1O [PGF2α]
transmission in motor pathways [6]: facilitates transmission in motor pathways | effect in the female reproductive system (fertility, labor, abortion) [7]: contragestational effects; also recorded: induces spontaneous abortions in early pregnancy

CCCCC[C@H](O)/C=C/[C@H]1[C@H](O)CC(=O)[C@@H]1CCCCCCC(=O)O [PGE1, prostaglandin E1]
transmitter release from adrenergic nerve endings [8]: inhibit transmitter release from adrenergic nerve endings | steroidogenesis in the adrenal glands [9]: stimulate steroidogenesis in the adrenal glands | contraction of smooth muscle of the vas deferens [10]: contracts the smooth muscle of the vas deferens | inhibition of aggregation of human platelets, in words (natural prostaglandin) [11]: displays a similar activity

O=C1C[C@@H](O)[C@H](/C=C/[C@@H](O)C2CC3(CCC3)C2)[C@H]1CCCCCCCO [TR-4714, 7-{3R-hydroxy-5-oxo-2R-[3S-hydroxy-3-(spiro[3.3]hept-2-yl)-1E-propenyl]cyclopent-1R-yl}heptan-1-ol]
Test G Guinea Pig Trachea, Activity Value [1]: Cl | Test E Cascade Assay, Aorta, Activity Value (ED50) [2]: 0 (>10000) | Test E Cascade Assay, Rectum, Activity Value (ED50) [3]: 0 (>10000) | Test E Cascade Assay, Colon, Activity Value (ED50) [12]: 0 (>10000) | EC50 [13]: > 10 µg/mL | Test B Activity Value (% decrease in acidity, inhibition of gastric secretion) [14]: 0 (<26) | Test E Cascade Assay, Stomach, Activity Value (ED50) [5]: 0 (>10000)

From patent publication US4098823A, “Monospiroalkyl derivatives of prostaglandins” (Miles Laboratories, Inc., priority 1977, dated 1978)
